Like-named read-outs stand apart in the source and are kept apart here.
Legend:
[1] = test system: JAK1/TYK2 pSTAT5 (Tyr694/699) in THP-1 cell line; assay: IFNa-stimulated JAK1/TYK2 pSTAT5 (Tyr694/699) inhibition cellular assay, AlphaLISA; assay type: cell-based; conditions: Homo sapiens, THP-1 cells, AlphaLISA (Assay B)
Description: Assay B: JAK1/TYK2 pSTAT5 (Tyr694/699) inhibition IC50 Cellular Assays
To evaluate the inhibition effect of compounds disclosed herein against TYK2, an IFNa-stimulated JAE1/TYK2 pSTAT5 (Tyr694/699) quantification assay was conducted in the THP-1 cell line using an AlphaLISA detection method (PerkinElmer ALSU-PST5). Compounds in DMSO were serially diluted in a 96-well plate (10 mM starting concentration, 6-fold dilutions, 8 concentrations total) prior to dispensing of 8 nL into a 384-well plate using an I.DOT non-contact liquid handler (Dispendix). Cells were collected via centrifugation at 300 ref for 5 min and resuspended in Hanks' Balanced Salt Solution (Gibco 14175-079), and 6 μl containing 2e4 cells was dispensed into each well of the 384-well plate containing test compounds or DMSO alone (final concentrations: 10000, 1666.67, 277.78, 46.30, 7.72, 1.29, 0.21 and 0.04 nM). Cells were then incubated for 1 h at 37° C. with 5% CO2 prior to the addition of 2 μL IFNa (100 ng/mL; PBL Assay Science 11175-1). Following an additional 30 min incubation at 37° C. with 5% CO2, 2 μL of 5× lysis buffer was added to each well using the I.DOT […]. Plates were sealed and incubated at RT for 10 min on a plate shaker set to 400 RPM. Cell lysates were then frozen at −80° C. before subsequent detection of pSTAT5 by AlphaLISA. At the time of the detection assay, cell lysates were thawed for 5 min at room temperature and then on a plate shaker set to 400 RPM for an additional 10 min. Following the manufacturer recommended protocol (Perkin Elmer), 5 μL of acceptor bead master mix was added to each well; plates were then resealed and incubated for 2 min at RT on a plate shaker (400 rpm) prior to an additional 2-h incubation without agitation (protected from light). Donor bead master mix, 5 uL per well, was then added to each well before 2 min of shaking (RT, 400 rpm) and 2-h incubation (RT, no shaking, protected from light). Levels of pSTAT5 protein were then measured as fluorescent signal at 615 nm with an EnVision multimode plate reader (Perkin Elmer). IC50 values were calculated in Dotmatics using the four-parameter logistic curve regression model with bottom fixed to 0 and Hill Slope fixed to −1.

[2] = biological target: T1, TYK2 JH2 (Homo sapiens, UniProt P29597); assay: TYK2 JH2 binding assay (KINOMEscan KdELECT competitive binding); conditions: TYK2 JH2 domain
T1 construct: purchased DiscoverX (KINOMEscan KdELECT service); host or cells: E. coli BL21-derived (T7 phage display) or HEK-293
Description: Assay A: TYK2 JH2 Binding Assay
Competitive binding studies using TKY2 JH2-domain fragments were conducted by DiscoverX using the KINOMEscan (KdELECT) platform. Kinase-tagged T7 phage strains were prepared in an E. coli host derived from the BL21 strain. E. coli were grown to log-phase and infected with […] and incubated with shaking at 32° C. until lysis. The lysates were centrifuged and filtered to remove cell debris. The remaining kinases were produced in HEK-293 cells and subsequently tagged with DNA for qPCR detection. Streptavidin-coated magnetic beads were treated with biotinylated small molecule ligands for 30 minutes at room temperature to generate affinity resins for kinase assays. The liganded beads were blocked with excess biotin and washed with blocking buffer (SeaBlock (Pierce), 1% BSA, 0.05% Tween 20, 1 mM DTT) to remove unbound ligand and to reduce non-specific binding. Binding reactions were assembled by combining kinases, liganded affinity beads, and test compounds in 1× binding buffer (20% SeaBlock, 0.17×PBS, 0.05% Tween 20, 6 mM DTT). Test compounds were prepared as 111× stocks in 100% DMSO. Kds were determined using an 11-point 3-fold compound dilution series with three DMSO control points. All compounds for Kd measurements are distributed by acoustic transfer (non-contact dispensing) in 100% DMSO. The compounds were then diluted directly into the assays such that the final concentration of DMSO was 0.9%. All reactions performed in polypropylene 384-well plate. Each was a final volume of 0.02 ml. The assay plates were incubated at room temperature with shaking for 1 hour and the affinity beads were washed with wash buffer (1×PBS, 0.05% Tween 20). The beads were then re-suspended in elution buffer (1×PBS, 0.05% Tween 20, 0.5 μM non-biotinylated affinity ligand) and incubated at room temperature with shaking for 30 minutes. The kinase concentration in the eluates was measured by qPCR.

[3] = IFNa-stimulated, read-out: Cellular_THP1_IFNa-pSTATS_TYK2
[4] = KINOMEscan KdELECT (Assay A), read-out: Biochemical TYK2_DiscoverX_JH2_BND_Kd
[5] = DiscoverX KINOMEscan KdELECT (Assay A), read-out: Biochemical TYK2_DiscoverX_JH2_BND_Kd
[6] = IFNa-stimulated pSTAT5 (Tyr694/699), read-out: Cellular_THP1_IFNa-pSTATS_TYK2
[7] = IFNa-stimulated, read-out: Cellular THP1_IFNa-pSTATS_IC50
[8] = KINOMEscan KdELECT (Assay A), read-out: Biochemical TYK2_JH2_Kd

T1 sequence (P29597 589-875 limits assumed): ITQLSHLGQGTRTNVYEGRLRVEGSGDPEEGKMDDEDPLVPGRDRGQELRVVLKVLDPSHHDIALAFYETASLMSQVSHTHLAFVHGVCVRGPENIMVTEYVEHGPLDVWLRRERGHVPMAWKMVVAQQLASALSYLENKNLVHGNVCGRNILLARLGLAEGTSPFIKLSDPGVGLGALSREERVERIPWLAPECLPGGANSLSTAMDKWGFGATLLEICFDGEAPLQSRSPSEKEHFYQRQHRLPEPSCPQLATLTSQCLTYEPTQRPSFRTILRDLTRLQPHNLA

Structure (SMILES)	IC50 [1, 3] [µM]	Kd [2, 5] [µM]	also measured
CNc1ncc(-c2nc(Cc3ncn(C)n3)co2)c2cc(NC(=O)C3CC3)ncc12 [Example 827, N-(5-(4-((1-methyl-1H-1,2,4-triazol-3-yl)methyl)oxazol-2-yl)-8-(methylamino)-2,7-naphthyridin-3-yl)cyclopropanecarboxamide]	> 0.5	–	Kd [2, 4]: ≤ 0.1 µM
CNc1ncc(-c2nc3cc(N4CCOC(C)C4)c(C)cc3o2)c2cc(NC(=O)C3CC3)ncc12 (centres unmarked) [Example 259, N-(5-(6-methyl-5-(2-methylmorpholino)benzo[d]oxazol-2-yl)-8-(methylamino)-2,7-naphthyridin-3-yl)cyclopropanecarboxamide]	≤ 0.5	≤ 0.1	–
CNc1ncc(-c2nc3cc(OC)ccc3o2)c2cc(NC(=O)[C@H]3C[C@H]3C(C)(C)O)ncc12 (racemic) [Example 405, 2-(2-hydroxypropan-2-yl)-N-(5-(5-methoxybenzo[d]oxazol-2-yl)-8-(methylamino)-2,7-naphthyridin-3-yl)cyclopropane-1-carboxamide]	≤ 0.5	≤ 0.1	–
CNc1ncc(-c2nc3cc(N4CC[C@H]4C#N)ccc3o2)c2cc(NC(=O)C3CC3)ncc12 [Example 320, (S)—N-(5-(5-(2-cyanoazetidin-1-yl)benzo[d]oxazol-2-yl)-8-(methylamino)-2,7-naphthyridin-3-yl)cyclopropanecarboxamide]	≤ 0.5	≤ 0.1	–
CNc1ncc(-c2nc3c(o2)CCC(C(F)(F)F)C3)c2cc(NC(=O)C3CC3)ncc12 (centres unmarked) [Example 855, N-(8-(methylamino)-5-(5-(trifluoromethyl)-4,5,6,7-tetrahydrobenzo[d]oxazol-2-yl)-2,7-naphthyridin-3-yl)cyclopropanecarboxamide]	> 0.5	–	Kd [2, 4]: ≤ 0.1 µM
CNc1ncc(-c2nc3cc(/C(C)=N\OC)ccc3o2)c2cc(NC(=O)C3CC3)ncc12 [Example 462, (Z)—N-(5-(5-(1-(methoxyimino)ethyl)benzo[d]oxazol-2-yl)-8-(methylamino)-2,7-naphthyridin-3-yl)cyclopropanecarboxamide]	≤ 0.5	≤ 0.1	–
CNc1ncc(-c2nc3ccc(N4CCO[C@@H](CO)C4)cn3n2)c2cc(NC(=O)C3CC3)ncc12 [Example 1030]	–	–	IC50 [1, 6]: ≤ 0.5 µM; Kd [2, 4]: ≤ 0.1 µM
CNc1ncc(-c2nc3ccccc3o2)c2cc(Nc3ccccn3)ncc12 [Example 427, 4-(benzo[d]oxazol-2-yl)-N^1-methyl-N^6-(pyridin-2-yl)-2,7-naphthyridine-1,6-diamine]	≤ 0.5	≤ 0.1	–
CNc1ncc(/C=C/c2ccc3c(c2)OC[C@@H](COC)O3)c2cc(NC(=O)C3CC3)ncc12 (single isomer, unassigned) [Example 791]	≤ 0.5	–	Kd [2, 4]: ≤ 0.1 µM
CNc1ncc(-c2nc3cc(OCC(F)F)ccc3o2)c2cc(NC(=O)C3CC3)ncc12 [Example 247, N-(5-(5-(2,2-difluoroethoxy)benzo[d]oxazol-2-yl)-8-(methylamino)-2,7-naphthyridin-3-yl)cyclopropanecarboxamide]	≤ 0.5	≤ 0.1	–
CNc1ncc(-c2nc3cc(NC(=O)C4CC4)ccc3o2)c2cc(NC(=O)C3CC3)ncc12 [Example 1091, N-(2-(6-(cyclopropanecarboxamido)-1-(methylamino)-2,7-naphthyridin-4-yl)benzo[d]oxazol-5-yl)cyclopropanecarboxamide]	–	–	IC50 [1, 6]: ≤ 0.5 µM; Kd [2, 4]: ≤ 0.1 µM
CNc1ncc(-c2nc3ccc(N4CCO[C@@H](C)C4)cn3n2)c2cc(Nc3ccn(C)n3)ncc12 [Example 545, (S)—N^1-methyl-N^6-(1-methyl-1H-pyrazol-3-yl)-4-(6-(2-methylmorpholino)-[1,2,4]triazolo[1,5-a]pyridin-2-yl)-2,7-naphthyridine-1,6-diamine]	≤ 0.5	≤ 0.1	–
CNc1ncc(C)c2cc(NC(=O)C3CC3)ncc12 [Example 27, N-(5-methyl-8-(methylamino)-2,7-naphthyridin-3-yl)cyclopropanecarboxamide]	–	–	IC50 [1, 7]: > 0.5 µM; Kd [2, 8]: ≤ 0.1 µM
CNc1ncc(-c2nc3cccc(OC)c3o2)c2cc(NC(=O)C3CC3)ncc12 [Example 208, N-(5-(7-methoxybenzo[d]oxazol-2-yl)-8-(methylamino)-2,7-naphthyridin-3-yl)cyclopropanecarboxamide]	≤ 0.5	≤ 0.1	–
CNc1ncc(-c2ccccc2)c2cc(NCc3ccc(OC)cc3)ncc12 [Example 98, N^6-(4-methoxybenzyl)-N^1-methyl-4-phenyl-2,7-naphthyridine-1,6-diamine]	–	–	IC50 [1, 7]: > 0.5 µM; Kd [2, 8]: 1 to 10 µM
CNc1ncc(-c2nc3ccc(OC)cn3n2)c2cc(Nc3ccccn3)ncc12 [Example 523, 4-(6-methoxy-[1,2,4]triazolo[1,5-a]pyridin-2-yl)-N^1-methyl-N^6-(pyridin-2-yl)-2,7-naphthyridine-1,6-diamine]	≤ 0.5	≤ 0.1	–
CNc1ncc(CO)c2cc(NC(=O)C3CC3)ncc12 [Example 44, N-(5-(hydroxymethyl)-8-(methylamino)-2,7-naphthyridin-3-yl)cyclopropanecarboxamide]	–	–	IC50 [1, 7]: > 0.5 µM; Kd [2, 8]: ≤ 0.1 µM
CNc1ncc(-c2nc3cccc(Cc4cocn4)c3o2)c2cc(NC(=O)C3CC3)ncc12 [Example 271, N-(8-(methylamino)-5-(7-(oxazol-4-ylmethyl)benzo[d]oxazol-2-yl)-2,7-naphthyridin-3-yl)cyclopropanecarboxamide]	≤ 0.5	≤ 0.1	–
CNc1ncc(-c2nc3cc(OCC#N)ccc3o2)c2cc(NC(=O)C3CC3)ncc12 [Example 338, N-(5-(5-(cyanomethoxy)benzo[d]oxazol-2-yl)-8-(methylamino)-2,7-naphthyridin-3-yl)cyclopropanecarboxamide]	≤ 0.5	≤ 0.1	–
CNc1ncc(-c2nc(-c3nc[nH]n3)co2)c2cc(NC(=O)C3CC3)ncc12 [Example 829, N-(5-(4-(1H-1,2,4-triazol-3-yl)oxazol-2-yl)-8-(methylamino)-2,7-naphthyridin-3-yl)cyclopropanecarboxamide]	≤ 0.5	–	Kd [2, 4]: ≤ 0.1 µM
CC[C@H]1C[C@@H]1C(=O)Nc1cc2c(-c3nc4ccc(N5CCOCC5)cn4n3)cnc(NC)c2cn1 (single isomer, unassigned) [Example 585]	≤ 0.5	≤ 0.1	–
CNc1ncc(-c2cccc(COC)c2)c2cc(NC(=O)C3CC3)ncc12 [Example 168, N-(5-(3-(methoxymethyl)phenyl)-8-(methylamino)-2,7-naphthyridin-3-yl)cyclopropanecarboxamide]	–	–	IC50 [1, 7]: > 0.5 µM; Kd [2, 8]: ≤ 0.1 µM

From US20240025906A1 (NEURON23, INC., priority 2022, published 2024)
